PubChem BioAssay (NCI)
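Dose response: 5 concentrations. Exposure: 48 h. Format: 96-well plates. Endpoint: linear interpolation; highest concentration if not reached. TGI is the concentration that stops growth completely.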

Tests used:
Assay in all cases: inhibition of tumour cell growth, NCI panel, 48 h
[1] = tested on: SK-OV-3 ovarian
[2] = tested on: NCI-H460 lung
[3] = tested on: MDA-MB-435
[4] = tested on: LOX IMVI melanoma
[5] = tested on: HOP-92 NSCLC
[6] = tested on: A549 NSCLC
[7] = tested on: K-562 leukemia
[8] = tested on: HCC-2998 colon
[9] = tested on: HCT-116 colon
[10] = tested on: SNB-19 CNS
[11] = tested on: UACC-257 melanoma
[12] = tested on: PC-3 prostate
[13] = tested on: HL-60(TB) leukemia
[14] = tested on: DU-145 prostate
[15] = tested on: IGROV1 ovarian
[16] = tested on: NCI-H522 lung
[17] = tested on: COLO 205 colon
[18] = tested on: MDA-MB-231 breast
[19] = tested on: MCF7 breast
[20] = tested on: SK-MEL-5 melanoma
[21] = tested on: T-47D breast
[22] = tested on: OVCAR-4 ovarian
[23] = tested on: ACHN renal
[24] = tested on: NCI-H23 lung
[25] = tested on: RPMI-8226 leukemia
[26] = tested on: CAKI-1 renal
[27] = tested on: SW-620 colon
[28] = tested on: UACC-62 melanoma
[29] = tested on: SF-295 CNS
[30] = tested on: M14 melanoma
[31] = tested on: TK-10 renal
[32] = tested on: HS 578T breast
[33] = tested on: 786-0 renal
[34] = tested on: BT-549 breast
[35] = tested on: MDA-N
[36] = tested on: MALME-3M melanoma
[37] = tested on: NCI/ADR-RES ovarian
[38] = tested on: RXF 393 renal
[39] = tested on: SK-MEL-2 melanoma
[40] = tested on: SK-MEL-28 melanoma
[41] = tested on: UO-31 renal
[42] = tested on: A498 renal
[43] = tested on: CCRF-CEM leukemia
[44] = tested on: KM12 colon
[45] = tested on: SF-268 CNS
[46] = tested on: HCT-15 colon
[47] = tested on: NCI-H226 lung
[48] = tested on: SR leukemia
[49] = tested on: SN12C renal
[50] = tested on: HOP-62 NSCLC
[51] = tested on: U251 CNS
[52] = tested on: EKVX NSCLC
[53] = tested on: OVCAR-5 ovarian
[54] = tested on: MOLT-4 leukemia
[55] = tested on: OVCAR-8 ovarian
[56] = tested on: HT29 colon
[57] = tested on: SNB-75 CNS
[58] = tested on: SF-539 CNS
[59] = tested on: OVCAR-3 ovarian

Structure (SMILES): Cc1ccc(-c2nc3cc(N4CCN(C)CC4)c(F)cc3[nH]2)cc1
- TGI [1]: 57.7 µM
- TGI [2]: 32.6 µM
- TGI [3]: 48.1 µM
- TGI [4]: 94.3 µM
- TGI [5]: > 100 µM
- TGI [6]: 49 µM
- TGI [7]: > 100 µM
- TGI [8]: 24.6 µM
- TGI [9]: 50 µM
- TGI [10]: 58.9 µM
- TGI [11]: 34.3 µM
- TGI [12]: > 100 µM
- TGI [13]: 46 µM
- TGI [14]: > 100 µM
- TGI [15]: 90 µM
- TGI [16]: 31.9 µM
- TGI [17]: 34.5 µM
- TGI [18]: > 100 µM
- TGI [19]: 30.3 µM
- TGI [20]: 25.1 µM
- TGI [21]: 50.7 µM
- TGI [22]: 59.3 µM
- TGI [23]: 70.5 µM
- TGI [24]: > 100 µM
- TGI [25]: 75.5 µM
- TGI [26]: > 100 µM
- TGI [27]: > 100 µM
- TGI [28]: 31.3 µM
- TGI [29]: 30.4 µM
- TGI [30]: 31 µM
- TGI [31]: > 100 µM
- TGI [32]: 29.1 µM
- TGI [33]: 39 µM
- TGI [34]: 55.8 µM
- TGI [35]: 95.7 µM
- TGI [36]: 31.2 µM
- TGI [37]: > 100 µM
- TGI [38]: 38.4 µM
- TGI [39]: 32 µM
- TGI [40]: 61.3 µM
- TGI [41]: 27.4 µM
- TGI [42]: 91.4 µM
- TGI [43]: > 100 µM
- TGI [44]: 27 µM
- TGI [45]: 43.6 µM
- TGI [46]: 21 µM
- TGI [47]: 38.3 µM
- TGI [48]: > 100 µM
- TGI [49]: > 100 µM
- TGI [50]: 29.3 µM
- TGI [51]: > 100 µM
- TGI [52]: 70 µM
- TGI [53]: 60.2 µM
- TGI [54]: > 100 µM

Structure (SMILES): CC1(C)COP(=S)(c2ccccn2)O[C@@H]1c1ccccc1 (stereo not given in full)
- TGI [1]: > 100 µM
- TGI [2]: > 100 µM
- TGI [55]: > 100 µM
- TGI [3]: > 100 µM
- TGI [4]: > 100 µM
- TGI [5]: > 100 µM
- TGI [6]: > 100 µM
- TGI [7]: > 100 µM
- TGI [8]: > 100 µM
- TGI [9]: > 100 µM
- TGI [10]: > 100 µM
- TGI [11]: > 100 µM
- TGI [12]: > 100 µM
- TGI [13]: > 100 µM
- TGI [14]: > 100 µM
- TGI [15]: > 100 µM
- TGI [16]: > 100 µM
- TGI [17]: > 100 µM
- TGI [18]: > 100 µM
- TGI [19]: > 100 µM
- TGI [20]: 91.1 µM
- TGI [21]: > 100 µM
- TGI [22]: > 100 µM
- TGI [23]: > 100 µM
- TGI [24]: > 100 µM
- TGI [26]: > 100 µM
- TGI [27]: > 100 µM
- TGI [28]: > 100 µM
- TGI [29]: > 100 µM
- TGI [30]: > 100 µM
- TGI [31]: > 100 µM
- TGI [32]: > 100 µM
- TGI [33]: > 100 µM
- TGI [34]: > 100 µM
- TGI [35]: > 100 µM
- TGI [36]: > 100 µM
- TGI [37]: > 100 µM
- TGI [38]: > 100 µM
- TGI [40]: > 100 µM
- TGI [41]: > 100 µM
- TGI [42]: > 100 µM
- TGI [43]: > 100 µM
- TGI [44]: > 100 µM
- TGI [45]: > 100 µM
- TGI [46]: > 100 µM
- TGI [56]: > 100 µM
- TGI [47]: > 100 µM
- TGI [48]: > 100 µM
- TGI [49]: > 100 µM
- TGI [57]: > 100 µM
- TGI [50]: > 100 µM
- TGI [51]: > 100 µM
- TGI [52]: > 100 µM
- TGI [53]: > 100 µM
- TGI [54]: > 100 µM

Structure (SMILES): O=P1(N(CCCl)CCCl)Oc2ccc(Cl)cc2Sc2c(ccc(Cl)c2Cl)O1 (stereo not given)
- TGI [1]: > 100 µM
- TGI [2]: 33.7 µM
- TGI [55]: > 100 µM
- TGI [3]: > 100 µM
- TGI [4]: > 100 µM
- TGI [5]: 34.4 µM
- TGI [6]: 77.1 µM
- TGI [7]: > 100 µM
- TGI [8]: > 100 µM
- TGI [9]: 74.6 µM
- TGI [11]: > 100 µM
- TGI [12]: > 100 µM
- TGI [13]: > 100 µM
- TGI [14]: > 100 µM
- TGI [16]: > 100 µM
- TGI [17]: 23 µM
- TGI [18]: > 100 µM
- TGI [19]: > 100 µM
- TGI [20]: 21.5 µM
- TGI [21]: > 100 µM
- TGI [22]: > 100 µM
- TGI [23]: > 100 µM
- TGI [24]: > 100 µM
- TGI [25]: > 100 µM
- TGI [26]: > 100 µM
- TGI [27]: > 100 µM
- TGI [58]: > 100 µM
- TGI [28]: > 100 µM
- TGI [29]: > 100 µM
- TGI [30]: > 100 µM
- TGI [31]: > 100 µM
- TGI [32]: 33.6 µM
- TGI [33]: > 100 µM
- TGI [34]: > 100 µM
- TGI [35]: > 100 µM
- TGI [37]: > 100 µM
- TGI [38]: 43.9 µM
- TGI [39]: 80.3 µM
- TGI [40]: > 100 µM
- TGI [41]: > 100 µM
- TGI [42]: > 100 µM
- TGI [43]: > 100 µM
- TGI [44]: > 100 µM
- TGI [59]: > 100 µM
- TGI [45]: > 100 µM
- TGI [46]: > 100 µM
- TGI [56]: > 100 µM
- TGI [47]: 95 µM
- TGI [48]: > 100 µM
- TGI [49]: > 100 µM
- TGI [57]: 67.3 µM
- TGI [50]: > 100 µM
- TGI [51]: > 100 µM
- TGI [52]: > 100 µM
- TGI [53]: > 100 µM
- TGI [54]: > 100 µM
